Here are results for 13 compounds from ChEMBL document CHEMBL4393659, “Insights into the chemistry and therapeutic potential of furanones: A versatile pharmacophore” (Eur J Med Chem, 2019).

The species named for data set [1] is Rattus norvegicus. As to the kind of experiment: Antiarthritic activity in adjuvant-induced Sprague-Dawley rat. The class given is functional.
Data set [2] concerns Rattus norvegicus. As to the kind of experiment: Antiinflammatory activity in po dosed Sprague-Dawley rat assessed as inhibition of carrageenan-induced paw edema incubated for one hour followed by carrageenan addition and measured after 3 hrs. The class given is functional. In general terms: In the carrageenan paw model, swelling and tenderness develop within hours.
For data set [3], the system named is Scedosporium boydii. Briefly: Antifungal activity against Pseudallescheria boydii BMU04772 assessed as reduction in fungal cell growth incubated for 24 hrs by broth dilution method. Conditions: BMU04772, 24 h. Type of data set: functional. (Dilution methods test growth across graded concentrations, often in twofold steps.)
Data set [4] has as its system Pyricularia oryzae. As to the kind of experiment: Antifungal activity against Pyricularia oryzae CGMCC 3.3283 assessed as reduction in fungal cell growth incubated for 24 hrs by broth dilution method. The class given is functional. As to conditions: CGMCC 3.3283, 24 h.
For data set [5], the system named is Fusarium graminearum. As to the kind of experiment: Antifungal activity against Gibberella zeae CGMCC 3.2873 assessed as reduction in fungal cell growth incubated for 24 hrs by broth dilution method. Type of data set: functional. Conditions: CGMCC 3.2873, 24 h.
Data set [6] has as its system Fusarium oxysporum. Briefly: Antifungal activity against Fusarium oxysporum CGMCC 3.2830 assessed as reduction in fungal cell growth incubated for 24 hrs by broth dilution method. Type of data set: functional. As to conditions: CGMCC 3.2830, 24 h.
The test system of data set [7] is MT4. Briefly: Antiproliferative activity against human MT4 cells assessed as reduction in cell viability. Type of data set: functional, cell-based.
Data set [8] has as its system CCRF-CEM. Briefly: Antiproliferative activity against human CEM cells assessed as reduction in cell viability incubated for 48 hrs by coulter counter method. Type of data set: functional, cell-based.
Data set [9] relates to L1210. As to the kind of experiment: Antiproliferative activity against mouse L1210 cells assessed as reduction in cell viability incubated for 48 hrs by coulter counter method. Type of data set: functional, cell-based. Conditions: L1210, 48 h.
Data set [10] relates to MOLT-4F. As to the kind of experiment: Antiproliferative activity against human MOLT4F cells assessed as reduction in cell viability incubated for 72 hrs by coulter counter method. The class given is functional, cell-based.
Data set [11] relates to Candida albicans. As to the kind of experiment: Antifungal activity against Candida albicans assessed as inhibition of fungal cell growth incubated for 72 hrs by disk diffusion method relative to control. Type of data set: functional.
Data set [12] has as its system A549. As to the kind of experiment: Antitumor activity against human A549 cells assessed as inhibition of cell viability at 100 uM by MTT assay. The class given is functional.
Data set [13] has as its system A549. Briefly: Antitumor activity against human A549 cells assessed as inhibition of cell viability at 50 uM by MTT assay. The class given is functional. For orientation: Tetrazolium assays rely on reduction of a dye to a coloured formazan, in cell work by metabolically active cells.
A short description of data set [14]: Cytotoxicity against dog MDCK cells assessed as reduction in cell viability incubated for 24 hrs by MTT assay. Conditions: read-out: LD50. The class given is cell-based, Canis lupus familiaris.
Data set [15] concerns H5N1 subtype. As to the kind of experiment: Antiviral activity against H5N1 virus infected in MDCK cells assessed as virus-induced cytopathogenicity infected for 2 hrs followed by virus washout and incubated for 3 days. Type of data set: functional, organism-based. Conditions: Influenza A virus.
Data set [16] deals with Rattus norvegicus. Briefly: Antiinflammatory activity in Sprague-Dawley rat assessed as inhibition of carrageenan-induced paw edema at 3 mg/kg , po incubated for 1 hr followed by carrageenan addition and measured after 4 hrs relative to control. Type of data set: functional.
The nature of data set [17]: Ulcerogenicity in Sprague-Dawley rat assessed as gastric lesions at 30 mg/kg , po measured after 4 hrs. The class given is toxicity, organism-based. Conditions: in vivo.
The subject of data set [18] is Rattus norvegicus. As to the kind of experiment: Antiinflammatory activity in Sprague-Dawley rat assessed as inhibition of carrageenan-induced paw edema at 3 mg/kg , po relative to control. The class given is functional.
Data set [19] concerns Rattus norvegicus. Briefly: Antiinflammatory activity in Wistar rat assessed as inhibition of carrageenan-induced edema measured upto 4 hrs. The class given is functional.
Data set [20] in a line: Ulcerogenicity in Wistar rat assessed as gastric lesions. The class given is toxicity. Conditions: in vivo.
The target in data set [21] is Phospholipase A2 (Apis mellifera, UniProt P00630). As to the kind of experiment: Inhibition of bee venom phospholipase A2.
Phospholipase A2, sequence (P00630 whole entry): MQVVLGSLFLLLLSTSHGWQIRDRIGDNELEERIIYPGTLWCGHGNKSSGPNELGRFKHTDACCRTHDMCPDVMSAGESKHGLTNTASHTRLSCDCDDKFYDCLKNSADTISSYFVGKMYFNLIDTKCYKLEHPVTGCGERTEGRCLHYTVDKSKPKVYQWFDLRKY
For data set [22], the system named is Mycobacterium tuberculosis. Briefly: Antimycobacterial activity against Mycobacterium tuberculosis H37Rv ATCC 27294 at 0.19 to 100 ug/ml incubated for 4 days by microplate alamar blue assay. Conditions: H37Rv ATCC 27294, 96 h. Type of data set: functional, organism-based.
Data set [23] deals with Rattus norvegicus. Briefly: Antiinflammatory activity in rat assessed as inhibition of carrageenan-induced paw edema at 20 mg/kg , po incubated for 30 mins followed by carrageenan treatment further incubated for 3 hrs by plethysmometer relative to ibuprofen. The class given is functional.
Data set [24] deals with CYP3A4. Briefly: Inhibition of CYP3A4 in Sprague-Dawley rat liver microsome assessed as remaining activity by measuring 1'-hydroxylation of midazolam at 3 x 10^-5 M after 20 mins. Type of data set: ADME. Conditions: liver microsomes, probe midazolam (1'-hydroxylation), read-out: INH.
The test system of data set [25] is MAC16. Briefly: Antitumor activity in mouse MAC16 cells xenografted in NMRI mouse assessed as reduction in tumor weight administered after 2 days of transplantation and measured after 7 day. The class given is functional.
Data set [26] has as its system MAC13. Briefly: Antiproliferative activity against mouse MAC13 cells assessed as reduction in cell viability incubated for 3 days by MTT assay. The class given is functional, cell-based. Conditions: MAC13, 72 h.
In data set [27] the test system is MAC16. Briefly: Antiproliferative activity against mouse MAC16 cells assessed as reduction in cell viability incubated for 3 days by MTT assay. Type of data set: functional, cell-based. As to conditions: MAC16, 72 h.

Structures are written as SMILES. pIC50: −log10 of the molar value. Values after ≈ are worked out from the molar mass of the structure shown.

In general, ED50 refers to the dose at which the effect has come halfway, by size or by number of responders. Regarding `CC1(C)OC(=O)C(Oc2ccc(Br)cn2)=C1c1ccc(S(C)(=O)=O)cc1`, the ED50 in data set [1] came out at 0.2 mg/kg; in data set [2] it was 0.86 mg/kg.
As a reminder, the MIC is the least concentration at which growth counts as inhibited. For `COC(=O)C[C@]1(O)OC(=O)C(C)=C1C`, the MIC stood at 0.15 µg/mL (≈ 0.749 µM) in data set [3], 1.25 µg/mL (≈ 6.24 µM) in data set [4], 2 µg/mL (≈ 9.99 µM) in data set [5] and 2.5 µg/mL (≈ 12.5 µM) in [6].
A word on the pIC50: it is −log10 of the IC50, conventionally taken in molar units. In the case of `C/C(=C\c1occ2cc3oc(=O)ccc3cc12)C1=CC(=O)C(C)(C)O1`, the negative logarithm of the IC50 (pIC50) in data set [7], in [8], in data set [9] and in data set [10] was 4.10 to 4.40 throughout.
For the compound `O=C1OC(c2ccccc2)=C/C1=C/c1ccc([N+](=O)[O-])cc1`, the “growth inhibition (GI)” value in data set [11] is reported as 66%.
Usually inhibition stands for the percentage by which the read-out fell short of the control. As for `CC[C@H](C)[C@H](NC1=C(Br)C(=O)O[C@@H]1OC)C(=O)OC`, the inhibition at 100 µM in data set [12] worked out at 97.2%. Also, the inhibition at 50 µM in [13] was 82.7%.
As a reminder, the EC50 is the concentration that produces a half-maximal response. As for `O=C1OC(c2ccccc2)=C/C1=N/Nc1ccc(Br)cc1`, the CC50 at 24 h in data set [14] is under 100 µg/mL. Further, the concentration for a half-maximal effect (EC50) in data set [15] was under 100 µg/mL.
By inhibition in vivo is commonly meant the change of the read-out against control, counted positive when it falls. Turning to `CC1(C)OC(c2ccc(S(C)(=O)=O)cc2)=C(c2cc(F)cc(F)c2)C1=O`, the inhibition in vivo at 3 mg/kg in data set [16] and in data set [18] was 34% throughout. In data set [17], the UI was 1.8. Moreover, in data set [1], the ED50 is 0.03 mg/kg/day.
In the case of `O=C1OC(c2ccc3ccccc3c2)=C/C1=C\c1cc2ccc([N+](=O)[O-])cc2nc1Cl`, the “inhibition (INH)” value in data set [19] was 56 - 63%. In addition, the UI in data set [20] stood at 0.3.
Regarding `O=C1OC(O)C(/C=C/c2ccccc2)=C1F` (stereo not drawn), in data set [21], the pIC50 was 5.52.
In general, IC50 refers to the concentration that inhibits the measured activity by half. Read a low IC50 as higher potency. `COc1ccc(/C=C2/C=C(c3ccc(Br)cc3)OC2=O)cc1OC` yielded a half-inhibitory concentration (IC50) in data set [22] of 26.8 µg/mL (≈ 69.1 µM).
In the case of `CC(C)Cc1ccc(C2=C/C(=C\c3ccc(Cl)cc3Cl)C(=O)O2)cc1`, the inhibition in vivo at 20 mg/kg in data set [23] was found to be 66.1%.
On to `COC(=O)C1=C(C)OC(C)(C)C1=O`, for which, in data set [24], the activity at 20 min, 30 µM came out at 57.1%.
Regarding `O=C1OC(c2ccccc2)C(Cl)=C1Cl` (stereo not drawn), the “inhibition (INH)” value in data set [25] turned out to be 24%. The pIC50 in data set [26] and in data set [27] was 4.30 throughout.
